Results published in EP2325185A1, “Plk inhibitor” (GPC Biotech AG, priority 2009, dated 2011).
Read-outs that look alike come from different tables or passages of the source.

Experiments:
A-375 = assay: SRB cell proliferation assay, A-375; assay type: cell-based; conditions: Homo sapiens; A-375 (melanoma); compound 1 tested in racemic mixture
Experimental: (§1) Cells were exposed to the test compound racemate at various concentrations appropriate to determine an IC50 for 72 hours. Cell proliferation was measured using the SRB assay according to Shekan et al (J Natl Cancer Inst (1990) 82, 1107-112) in order to estimate the IC50 values shown in Table 3. Briefly, cells were plated in 96 well dishes 24 hours prior to compound addition at the densities specified in Table 5.1. The assay was terminated with the addition of cold TCA to a final concentration of 10% after growth medium has been removed and the plates were incubated over night at 4°C. The plates were then washed 5 times with water and 100µl of a Sulforhodamine B solution ([…]) was added to each well. The plates were then incubated for 10 minutes at room temperature before removal of unbound dye by washing with 1% acetic acid. The bound dye was solubilised with 10 mM Trizma base and the absorbance read at OD520.
(§2) Inhibitory activity of the compound (IC) was calculated as % inhibition of cell proliferation compared to cells treated with the solvent (DMSO).
(§3) Table 8.1: 18-Cell Line Panel

SW620 = assay: SRB cell proliferation assay, SW620; assay type: cell-based; conditions: Homo sapiens, SW-620; SW620 (colon); compound 1 tested in racemic mixture
Experimental: as §1, §2, §3

OVCAR-3 = assay: SRB cell proliferation assay, OVCAR-3; assay type: cell-based; conditions: Homo sapiens; OVCAR-3 (ovary); compound 1 tested in racemic mixture
Experimental: as §1, §2, §3

MDA-MB-231 = assay: SRB cell proliferation assay, MDA-MB-231; assay type: cell-based; conditions: Homo sapiens; MDA-MB-231 (breast); compound 1 tested in racemic mixture
Experimental: as §1, §2, §3

NCI-H460 tumor cells = assay: Mouse xenograft model using human NCI-H460 cells; assay type: in vivo; conditions: for mean body weight / mean body weight change: end of day four after begin of treatment; for mice died: mouse, in vivo
Experimental: […]. Human HT-29 cells (ATCC) colon carcinoma cell line are cultured in McCoy's medium (ATCC) supplied with 10% FCS and 1% Pen/Strep. The 2nd passage of cells with approximately 80% confluence is used in the study. Briefly, on Day 0, mice are inoculated with 0.1 ml (total 5x10^6 cells) of HT-29 cell suspension (50x10^6 cells/ml in McCoy's medium without supplements mixed 1:1 with Matrigel) by a subcutaneous injection into the lower right flank under light anesthesia. When the average tumor weights reaches above 100mg, animals with an appropriate tumor size are selected and are randomly divided into treatment groups (10 animals each).
Tumor growth and body weight are monitored and recorded twice a week. Tumors are measured by determining the length and width of the tumor with a digital caliper. Tumor weight is estimated using the following formula: Tumor Weight (mg) = (w^2 x 1) / 2 where w = width and I = length in mm of the tumor.
Toxic deaths are defined as deaths caused by compound treatment and not by advanced disease state. […].
In a model similar to the one described in a), mice were inoculated with NCI-H460 tumor cells, and treated (9 mice for each treatment group) with either vehicle only (NMP:PEG300), compound 1 (70 mg/kg once per week), compound 1 (35 mg/kg twice per week), BI 6727 (70 mg/kg once per week) and gemcitabine (25 mg/kg, once per week) (vivoPharm Europe Limited, Munich, Germany). At the end of day four after begin of treatment, the mean body weight for the compound 1 treatment groups had dropped from 20.5 g to 19.2 g (~5%; standard deviation 2.6 g), and from 20.1 g to 19.3 g (-4%; standard deviation 0.9 g), respectively, and one mouse in the high-dose treatment group had died. In contrast, in the BI 6727 treatment group, the mean body weight had dropped from 20.2 g to 16.2 g (-20%; standard deviation 1.5 g), five mice had died and the remaining mice had to be killed for ethical reasons.

IMR-90 = assay: SRB cell proliferation assay, IMR-90; assay type: cell-based; conditions: Homo sapiens; IMR-90 (lung); compound 1 tested in racemic mixture; read-out: IC50
Experimental: as §1, §2, §3

SK-MEL-28 = assay: SRB cell proliferation assay, SK-MEL-28; assay type: cell-based; conditions: Homo sapiens; SK-MEL-28 (melanoma); compound 1 tested in racemic mixture
Experimental: as §1, §2, §3

HeLa = assay: SRB cell proliferation assay, HeLa; assay type: cell-based; conditions: Homo sapiens; HeLa (cervix); compound 1 tested in racemic mixture
Experimental: as §1, §2, §3

A549 = assay: SRB cell proliferation assay, A549; assay type: cell-based; conditions: Homo sapiens; A549 (lung); compound 1 tested in racemic mixture
Experimental: as §1, §2, §3

COLO 205 = assay: SRB cell proliferation assay, COLO 205; assay type: cell-based; conditions: Homo sapiens; COLO 205 (colon); compound 1 tested in racemic mixture
Experimental: as §1, §2, §3

Plk1 = Plk1 (Homo sapiens, UniProt P53350); assay: Standard selectivity panel (ProQinase), Plk1; assay type: biochemical; design: purchased ProQinase GmbH, Freiburg, Germany; conditions: duplicates, read-out: inhibited Plk1
Plk1, sequence (P53350 whole entry, species assumed): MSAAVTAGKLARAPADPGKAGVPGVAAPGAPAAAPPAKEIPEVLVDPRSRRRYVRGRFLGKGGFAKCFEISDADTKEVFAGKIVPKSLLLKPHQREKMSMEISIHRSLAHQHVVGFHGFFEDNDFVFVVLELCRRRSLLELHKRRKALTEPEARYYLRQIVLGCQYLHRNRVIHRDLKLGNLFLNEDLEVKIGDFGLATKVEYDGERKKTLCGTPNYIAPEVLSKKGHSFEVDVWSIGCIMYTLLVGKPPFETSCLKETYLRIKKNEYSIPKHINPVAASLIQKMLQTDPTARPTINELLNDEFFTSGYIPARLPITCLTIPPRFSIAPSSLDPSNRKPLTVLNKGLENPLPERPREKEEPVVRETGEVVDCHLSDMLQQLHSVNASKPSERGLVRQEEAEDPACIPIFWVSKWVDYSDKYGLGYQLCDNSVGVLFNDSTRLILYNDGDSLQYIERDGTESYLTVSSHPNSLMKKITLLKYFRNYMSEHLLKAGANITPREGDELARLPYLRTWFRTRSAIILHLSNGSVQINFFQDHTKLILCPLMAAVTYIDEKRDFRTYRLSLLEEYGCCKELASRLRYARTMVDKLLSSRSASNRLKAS
Experimental: (§4) The compound of the present invention was tested in a standard selectivity panel including Plkl and 255 other kinases (ProQinase GmbH, Freiburg, Germany), under conditions of non-disclosure, non-dissemination and non-use.
(§5) In brief, compound 1 (see Table 1) was tested at 1 µM in duplicates against Plk1 as well as against 255 other protein kinases, including Abl, Aktl, Aur A, Kit, Raf-1, Cdkl/CycB1, Chk1, FGF-R3, Flt3, Fyn, IGF1-R, INS-R, Lyn, p38a, PAK4, PKCalpha, Ret, ROCK2, Src, TIE2, and VEGF-R2. The test compound 1 inhibited Plk1 by more than about 90%, only three other kinases were inhibited by between about 50% and about 90%, about 13 kinases by between about 10% and about 50%, and all other kinases were inhibited by less than about 10%.

HCT 116 = assay: SRB cell proliferation assay, HCT 116; assay type: cell-based; conditions: Homo sapiens; HCT 116 (colon); compound 1 tested in racemic mixture; read-out: IC50
Experimental: as §1, §2, §3

[1] = test system: 255 other protein kinases; assay: Standard selectivity panel (ProQinase), 255 other kinases; assay type: biochemical; conditions: 1 µM, duplicates; all other kinases
Experimental: as §4, §5

HT-29 = assay: SRB cell proliferation assay, HT-29; assay type: cell-based; conditions: Homo sapiens; HT-29 (colon); compound 1 tested in racemic mixture; read-out: IC50
Experimental: as §1, §2, §3

MDA-MB-468 = assay: SRB cell proliferation assay, MDA-MB-468; assay type: cell-based; conditions: MDA-MB-468 (breast), compound 1 tested in racemic mixture
Experimental: as §1, §2, §3

[2] = test system: panel of 57 tumor cell lines; assay: Panel of 57 tumor cell lines (OncoLead), growth inhibition; assay type: cell-based
Experimental: In a similar experiment, the inhibitory activity of compound 1 was tested against a panel of 57 tumor cell lines (OncoLead GmbH&Co.KG, Martinsried, Germany) under conditions of non-disclosure, non-dissemination and non-use.
In 18 cell lines, the GI50 value was between 1 µM and 0.1 µM, and in 31 cell lines, the GI50 value was below 0.1 µM.

DU 145 = assay: SRB cell proliferation assay, DU 145; assay type: cell-based; conditions: Homo sapiens; DU 145 (prostate); compound 1 tested in racemic mixture
Experimental: as §1, §2, §3

PC-3 = assay: SRB cell proliferation assay, PC-3; assay type: cell-based; conditions: Homo sapiens; PC-3 (prostate); compound 1 tested in racemic mixture
Experimental: as §1, §2, §3

NCI-H460 = assay: SRB cell proliferation assay, NCI-H460; assay type: cell-based; conditions: Homo sapiens; NCI-H460 (NSCLC); compound 1 tested in racemic mixture
Experimental: as §1, §2, §3

ACHN = assay: SRB cell proliferation assay, ACHN; assay type: cell-based; conditions: Homo sapiens; ACHN (kidney); compound 1 tested in racemic mixture
Experimental: as §1, §2, §3

SK-MEL-5 = assay: SRB cell proliferation assay, SK-MEL-5; assay type: cell-based; conditions: Homo sapiens; SK-MEL-5 (melanoma); compound 1 tested in racemic mixture
Experimental: as §1, §2, §3

A-431 = assay: SRB cell proliferation assay, A-431; assay type: cell-based; conditions: Homo sapiens; A-431 (skin); compound 1 tested in racemic mixture
Experimental: as §1, §2, §3

With CC[C@@H]1C(=O)N(C)c2cnc(Nc3ccc(C(=O)N[C@H]4CC[C@H](N5CCN(CC6CC6)CC5)CC4)cc3OC)nc2N1N(C)C [Compound 1, (7R)-N-[trans-4-(4-Cyclopropylmethyl-piperazin-1-yl)-cyclohexyl]-4-(8-dimethylamino-7-ethyl-5-methyl-6-oxo-5,6,7,8-tetrahydro-pteridin-2-ylamino)-3-methoxy-benzamide] the IC50 (A-375) was < 1000 nM, the IC50 (SW620) was < 1000 nM and the IC50 (OVCAR-3) was < 1000 nM. For the same compound, the IC50 (MDA-MB-231) was < 1000 nM, the mean body weight (NCI-H460 tumor cells; 35 mg/kg twice per week) was 19.3 g and the “mean body weight change” value (NCI-H460 tumor cells; 35 mg/kg twice per week) was -4%. For the same compound, the tumor growth (NCI-H460 tumor cells; 70 mg/kg once per week and 35 mg/kg twice per week, compared with vehicle only or gemcitabine groups) was “a reduction of tumor growth could be observed”, the mean body weight (NCI-H460 tumor cells; 70 mg/kg once per week) was 19.2 g and the “mean body weight change” value (NCI-H460 tumor cells; 70 mg/kg once per week) was ~ 5%. The mice died (NCI-H460 tumor cells) was “one”, the IC50 (IMR-90) was > 1000 nM and the IC50 (SK-MEL-28) was > 1000 nM. The IC50 (HeLa) was < 1000 nM, the IC50 (A549) was < 1000 nM and the IC50 (COLO 205) was < 1000 nM. The inhibition at 1 µM (Plk1) was > 90%, the IC50 (HCT 116) was < 1000 nM and the kinases inhibited [1] was “less than 10%”. The IC50 (HT-29) was < 1000 nM, the IC50 (MDA-MB-468; Homo sapiens, read-out: IC50) was > 1000 nM and the GI50 ([2]; in 18 cell lines of 57) was 100 to 1000 nM. The GI50 ([2]; in 31 cell lines of 57) was < 100 nM, the GI50 ([2]; in about 49 cell lines of 57) was < 1000 nM and the IC50 (DU 145) was < 1000 nM. For the same compound, the IC50 (PC-3) was < 1000 nM, the IC50 (NCI-H460) was < 1000 nM and the IC50 (ACHN) was < 1000 nM. The IC50 (SK-MEL-5) was < 1000 nM and the IC50 (A-431) was < 1000 nM.

With CC[C@@H]1C(=O)N(C)c2cnc(Nc3ccc(C(=O)NC4CCN(C)CC4)cc3OC)nc2N1C1CCCC1 [BI 2536, reference compound] the IC50 (A-375) was < 1000 nM, the IC50 (SW620) was < 1000 nM and the IC50 (OVCAR-3) was < 1000 nM. The IC50 (MDA-MB-231) was < 1000 nM, the IC50 (IMR-90) was > 1000 nM and the IC50 (SK-MEL-28) was < 1000 nM. For the same compound, the IC50 (HeLa) was < 1000 nM, the IC50 (A549) was < 1000 nM and the IC50 (COLO 205) was < 1000 nM. The IC50 (HCT 116) was < 1000 nM, the IC50 (HT-29) was < 1000 nM and the IC50 (MDA-MB-468) was “plateau at ∼50%”. The IC50 (DU 145) was < 1000 nM, the IC50 (PC-3) was < 1000 nM and the IC50 (NCI-H460) was < 1000 nM. The IC50 (ACHN) was < 1000 nM, the IC50 (SK-MEL-5) was < 1000 nM and the IC50 (A-431) was < 1000 nM.

In the case of CC[C@@H]1C(=O)N(C)c2cnc(Nc3ccc(C(=O)N[C@H]4CC[C@H](N5CCN(CC6CC6)CC5)CC4)cc3OC)nc2N1C(C)C [BI 6727, reference compound], the mean body weight (NCI-H460 tumor cells; 70 mg/kg once per week) is reported as 16.2 g, the “mean body weight change” value (NCI-H460 tumor cells; 70 mg/kg once per week) is reported as -20% and the mice died (NCI-H460 tumor cells) is reported as “five”.
